The text below walks through data of patent US6479488B1, “Tetrahydroquinoline derivatives as EAA antagonists” (Glaxo Wellcome SpA, priority 1996, dated 2002).

In test [1] the target is T1, strychnine insensitive glycine binding site located on the NMDA receptor complex (Rattus norvegicus, UniProt P35439).
T1 construct: from tissue
The test can be described thus: Affinity for strychnine insensitive glycine binding site (procedure of Kishimoto et al.). As to the method: The potent and selective action of the compound of the invention at the strychnine-insensitive glycine binding site present on the NMDA receptor complex may be readily determined using conventional test procedures. Thus the ability to bind at the strychnine insensitive glycine binding site was determined using the procedure of Kishimoto H et al. J Neurochem 1981, 37 1015-1024. The selectivity of the action of compounds of the invention for the strychnine insensitive glycine site was confirmed in studies at other ionotropic known excitatory amino acid receptors.
The affinity of a compound of the invention for strychnine insensitive glycine binding site located on the NMDA receptor complex was determined using the procedure of Kishimoto H. et al J. Neurochem 1981, 37, 1015-1024.

Test [2] deals with generalized seizures induced by an intracerebroventicular injection of NMDA. Kind of test: Inhibition of NMDA induced convulsions in the mouse (procedure of Chiamulera et al.). The format is in vivo. The settings on record: mice, iv, 0.1 mg/kg dose, NMDA icv induced generalized seizures. As to the method: The ability of compounds of the invention to inhibit NMDA induced convulsions in the mouse was determined using the procedure of Chiamulera C et al. Psychopharmacology 1990, 102, 551-552. In this test the ability of the compound when administered iv to inhibit the generalized seizures induced by an intracerebroventicular injection of NMDA in mice was examined at 0.1 mg/kgdose.
The results as percent (%) of inhibition at 0.1 mg/kg dose for representative compounds are given below: […]

Usually Ki stands for a measure of affinity in units of concentration, obtained from inhibition or displacement. A lower Ki goes with tighter binding.

For the compound `NC(=O)C=Cc1ccc(NC(=O)C=C2CC(C(=O)O)Nc3cc(Cl)cc(Cl)c32)cc1` (racemic) [Example 3, (+/−(E,E)-4-[4-(2-Carbamoyl-vinyl)-phenylcarbamoylmethylene]-5,7-dichloro-1,2,3,4-tetrahydro-quinoline-2-carboxylic Acid], the Ki in test [1] was 7.94 nM. Moreover, in test [2], the “% of inhibition” value came out at 40%.
`O=C(C=C1CC(C(=O)O)Nc2cc(Cl)cc(Cl)c21)Nc1ccc(OCCN2CCOCC2)cc1` (racemic) [Example 4, (+/−)(E)-5,7-Dichloro-4-[4-(2-morpholin-4-yl-ethoxy)-phenylcarbamoylmethylene]-1,2,3,4-tetrahydro-guinoline-2-carboxylic Acid] had a Ki in test [1] of 63.1 nM.
In turn, `N#CCc1ccc(NC(=O)/C=C2\CC(C(=O)O)Nc3cc(Cl)cc(Cl)c32)cc1` (racemic) [Example 5, (+/−)(E)-5,7-Dichloro-4-(4-cyanomethyl-phenylcarbamoylmethylene)-1,2,3,4-tetrahydro-quinoline-2-carboxylic Acid] had a Ki in test [1] of 7.94 nM.
Regarding `CC(C)C(=O)NCCOc1ccc(NC(=O)C=C2CC(C(=O)O)Nc3cc(Cl)cc(Cl)c32)cc1` (racemic) [Example 6, (+/−)(E)-5,7-Dichloro-4-[4-(2-isobutyrylamino-ethoxy)-phenylcarbamoylmethylene]-1,2,3,4-tetrahydro-guinoline-2-carboxylic Acid], in test [1], the Ki was 15.8 nM. Moreover, the “% of inhibition” value in test [2] was 40%.
In the same order, the values of `COCC(=O)Nc1ccc(NC(=O)C=C2CC(C(=O)O)Nc3cc(Cl)cc(Cl)c32)cc1` (racemic) [Example 7, (+/−)(E)-5,7-Dichloro-4-[4-(2-methoxy-acetylamino)-phenylcarbamoylmethylene-1,2,3,4-tetrahydro-quinoline-2-carboxylic Acid] are 6.31 nM and 40%.
For `CC(C)C(=O)NCC(=O)Nc1ccc(NC(=O)/C=C2\CC(C(=O)[O-])Nc3cc(Cl)cc(Cl)c32)cc1.[Na+]` (racemic) [Example 9, (+/−)(E)-5,7-Dichloro-4-(4-isobutyrylaminomethylcarbonylamino-phenylcarbamoylmethylene)-1,2,3,4-tetrahydro-quinoline-2-carboxylic Acid Sodium Salt], in that order: 7.94 nM and 40%.
